Results published in US6110963A, “Aryl-oxo-acetic acids useful in the treatment of insulin resistance and hyperglycemia” (American Home Products Corporation, priority 1999, dated 2000).
Where two headings read alike, the source gives them in different places.

Assays:
[1] = target: T1, Human recombinant PTP1B (hPTP1B) (Homo sapiens, UniProt P18031); format: biochemical; settings: for IC50: recombinant PTP1B, malachite green phosphate detection; for inhibition at 2.5 µM: read-out: change of PTP1B activity (percent of phosphatase control) at single concentration
T1 construct: made in house
T1 sequence (P18031 1-435): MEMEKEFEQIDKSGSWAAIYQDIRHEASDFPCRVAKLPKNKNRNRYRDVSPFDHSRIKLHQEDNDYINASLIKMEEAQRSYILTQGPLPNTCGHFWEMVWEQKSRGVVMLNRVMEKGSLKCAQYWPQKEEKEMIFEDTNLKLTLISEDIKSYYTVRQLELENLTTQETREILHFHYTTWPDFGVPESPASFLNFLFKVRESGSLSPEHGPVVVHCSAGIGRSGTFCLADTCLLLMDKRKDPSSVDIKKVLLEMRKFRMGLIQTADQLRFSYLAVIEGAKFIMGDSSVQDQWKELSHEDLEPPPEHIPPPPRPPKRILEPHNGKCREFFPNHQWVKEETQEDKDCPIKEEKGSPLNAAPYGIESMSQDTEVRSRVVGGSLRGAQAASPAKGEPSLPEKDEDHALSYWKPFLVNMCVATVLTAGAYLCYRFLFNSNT

[2] = system: rat hepatic microsomal PTPases; settings: PTPase activity, compound at 50 μM, rat liver microsomes
diabetic (ob/ob) mice = test: Blood glucose lowering activity in diabetic (ob/ob) mice; format: in vivo, mouse; settings: 100 mg/Kg; for % Change Glucose from Vehicle: plasma glucose
Source text: The procedures used and results obtained are briefly described below.
The non-insulin dependent diabetic (NIDDM) syndrome can be typically characterizes by obesity, hyperglycemia, abnormal insulin secretion, hyperinsulinemia and insulin resistance.
In each test procedure, mice [Male or female ob/ob (C57 B1/6J) and their lean litermates (ob/+ or +/+, Jackson Laboratories) ages 2 to 5 months (10 to 65 g)] of a similar age were randomized according to body weight into 4 groups of 10 mice. The mice were housed 5 per cage and are maintained on normal rodent chow with water ad libitum. Mice received test compound daily by gavage (suspended in 0.5 ml of 0.5% methyl cellulose); dissolved in the drinking water; or admixed in the diet. The dose of compounds given ranges from 2.5 to 200 mg/kg body weight/day. The dose is calculated based on the fed weekly body weight and is expressed as active moiety. […] Control mice received vehicle only.
On the morning of Day 4, 7 or 14 two drops of blood (approximetly 50 ul) were collected into sodium fluoride containing tubes either from the tail vein or after decapitation. For those studies in which the compound was administered daily by gavage the blood samples were collected two hours after compound administration. The plasma was isolated by centrifugation and the concentration of glucose is measured enzymatically on an Abbott V. P. Analyzer.
For each mouse, the percentage change in plasma glucose on Day 4, 7 or 14 is calculated relative to the mean plasma glucose of the vehicle treated mice. Analysis of variance followed by Dunett's Comparison Test (one-tailed) are used to estimate the significant difference between the plasma glucose values from the control group and the individual compound treated groups (CMS SAS Release 5.18).

SMILES	IC50 [1]	% Change from Control [2]	also measured
CCCCc1oc2cc(Br)ccc2c1Cc1nc(Br)c(-c2ccc(OC)cc2)o1 [Example 26]	1240 nM	–	–
CCCCc1oc2ccccc2c1Cc1ccc2cc(O)ccc2c1 [Example 2]	1350 nM	-37%	–
CCCCc1oc2ccccc2c1C(=O)c1nc(Br)c(-c2ccc(OC)cc2)o1 [Example 25, [4-Bromo-5-(4-methoxy-phenyl)-oxazol-2-yl]-(2-butyl-benzofuran-3-yl)-methanone]	1360 nM	–	–
CCCCc1oc2ccccc2c1C(=O)c1ncc(-c2ccc(OC)cc2)o1 [Example 23, (2-Butyl-benzofuran-3-yl)-[5-(4-methoxy-phenyl)-oxazole-2-yl]-methanone]	–	–	inhibition at 2.5 µM ([1]; compound at 2.5 uM): 55%
CCCCc1oc2ccccc2c1Cc1ccc(-c2ccc(O)cc2)cc1 [Example 16]	1190 nM	-28%	–
CCCCc1oc2ccccc2c1C(=O)c1ccc(-c2ccc(O)cc2)cc1 [Example 15, (2-Butyl-benzofuran-3-yl)-(4'-hydroxy-biphenyl-4-yl)-methanone]	–	-20%	inhibition at 2.5 µM [1]: 53%
CCCCc1oc2ccccc2c1Cc1ccc(-c2ccc(OCc3nnn[nH]3)cc2)cc1 [Example 18]	510 nM	–	–
CCCCc1oc2ccccc2c1C(O)c1ccc(-c2cc(Br)c(O)c(Br)c2)cc1 (stereo not shown) [Example 20, 3,5-Dibromo-4'-[(2-butyl-benzofuran-3-yl)-hydroxy-methyl]-biphenyl-4-ol]	1400 nM	-22%	–
CCCCc1oc2ccccc2c1C(O)c1ncc(-c2ccc(OC)cc2)o1 (stereo not shown) [Example 22, (2-Butyl-benzofuran-3-yl)-[5-(4-methoxy-phenyl)-oxazole-2-yl]-methanol]	–	-38%	–
CCCCc1oc2ccccc2c1C(Sc1nc2ccccc2s1)c1ccc(-c2ccc(O)cc2)cc1 (stereo not shown) [Example 28, 4'-[(2-Butyl-benzofuran-3-yl)-(benzothiazol-2-ylsulfanyl)-methyl]-biphenyl-4-ol]	1160 nM	–	–
CCCCc1oc2ccccc2c1Cc1ccc2c(Br)c(OCC(=O)O)ccc2c1 [Example 4, [1-Bromo-6-(2-butyl-benzofuran-3-ylmethyl)-naphthalen-2-yloxy]-acetic acid]	1440 nM	-65%	–
CCCCc1oc2ccccc2c1C(Sc1nc2ccccc2s1)c1ccc(Br)c2ccccc12 (stereo not shown) [Example 31, 2-[(4-Bromo-naphthalen-1-yl)-(2-butyl-benzofuran-3-yl)-methylsulfanyl]-benzothiazole]	590 nM	–	–
CCCCc1oc2ccccc2c1Cc1ccc2c(Br)c(OC(Cc3ccccc3)C(=O)O)ccc2c1 (stereo not shown) [Example 5, 2-[1-Bromo-6-(2-butyl-benzofuran-3-ylmethyl)-naphthalen-2-yloxy]-3-phenylpropionic acid]	370 nM	-59%	% Change Glucose from Vehicle (diabetic (ob/ob) mice): -25.6%
CCCCc1oc2ccccc2c1C(Sc1nc2ccccc2s1)c1ccc(Br)cc1 (stereo not shown) [Example 30, 2-[(4-Bromo-phenyl)-(2-butyl-benzofuran-3-yl)-methylsulfanyl]-benzothiazole]	580 nM	–	–
CCCCc1oc2ccccc2c1Cc1ccc2c(I)c(OC(Cc3ccccc3)C(=O)O)ccc2c1 (stereo not shown) [Example 8]	310 nM	-58%	% Change Insulin from Vehicle (diabetic (ob/ob) mice): -33%; % Change Glucose from Vehicle (diabetic (ob/ob) mice): -11%
CCCCc1oc2ccccc2c1C(=O)c1ccc2c(Br)c(OC(Cc3ccccc3)C(=O)O)ccc2c1 (stereo not shown) [Example 11, 2-[1-Bromo-6-(2-butyl-benzofuran-3-carbonyl)-naphthalen-2-yloxy]-3-phenylpropionic acid]	1230 nM	-77%	–
CCCCCCCC(Sc1nc2ccccc2s1)c1cc2ccccc2s1 (stereo not shown) [Example 29, 2-[1-(Benzorblthiophen-2-yl)-octylsulfanyl]-benzothiazole]	1860 nM	-24%	–

SMILES	IC50 [1]	% Change from Control [2]	also measured
Oc1ccc2cc(Cc3c(Cc4ccccc4)sc4ccccc34)ccc2c1Br [Example 13, 6-(2-Benzyl-benzo[b]thiophen-3-ylmethyl)-1-bromo-naphthalen-2-ol]	1040 nM	-37%	–
CCCCc1oc2ccccc2c1C(O)c1ccc(-c2ccc(O)cc2)cc1 (stereo not shown) [Example 14, 4'-[(2-Butyl-benzofuran-3-yl)-hydroxy-methyl]-biphenyl-4-ol]	230 nM	–	–
CCCCc1oc2ccccc2c1C(O)c1ccc2cc(O)ccc2c1 (stereo not shown) [Example 1]	1160 nM	-31%	–
CCCCc1oc2ccccc2c1Cc1ccc2c(Br)c(OCc3nnn[nH]3)ccc2c1 [Example 6, 5-[1-Bromo-6-(2-butyl-benzofuran-3-ylmethyl)-naphthalen-2-yloxymethyl]-1H-tetrazole]	700 nM	-62%	–
CCCCc1oc2ccccc2c1C(=O)c1ccc2c(Br)c(OCC(=O)O)ccc2c1 [Example 10, [1-Bromo-6-(2-butyl-benzofuran-3-carbonyl)-naphthalen-2-yloxy]-acetic acid]	–	-69%	inhibition at 2.5 µM ([1]; compound at 2.5 uM): 46%
Oc1ccc(-c2ccc(C(O)c3c(Cc4ccccc4)sc4ccccc34)cc2)cc1 (stereo not shown) [Example 21, 4'-[(2-Benzyl-benzorblthiophen-3-yl)-hydroxy-methyl]-biphenyl-4-ol]	–	–	inhibition at 2.5 µM ([1]; compound at 2.5 uM): 36%
CCCCc1oc2ccccc2c1C(O)c1ccc2c(Br)c(O)ccc2c1 (stereo not shown) [Example 9, 1-Bromo-6-[(2-butyl-benzofuran-3-yl)-hydroxy-methyl]-naphthalen-2-ol]	480 nM	–	% Change Insulin from Vehicle (diabetic (ob/ob) mice): -38%
Brc1cc(Cc2ccc3ccccc3c2)cc(Br)c1OCc1nnn[nH]1 [Example 34, 5-[2,6-Dibromo-4-(naphthalen-2-ylmethyl)-phenoxymethyl]-1H-tetrazole]	–	–	% Change Insulin from Vehicle (diabetic (ob/ob) mice): -18%; % Change Glucose from Vehicle (diabetic (ob/ob) mice): -27.8%
CCCCc1oc2ccccc2c1Cc1ccc(-c2ccc(OCC(=O)O)cc2)cc1 [Example 17]	1150 nM	-76%	–
CCCCc1oc2ccccc2c1C(Sc1nc2ccccc2s1)c1ccccc1 (stereo not shown) [Example 32]	1000 nM	–	–
CCCCc1oc2ccccc2c1C(O)c1ccc(-c2ccc(OCC(=O)O)cc2)cc1 (stereo not shown) [Example 19, {4'-[(2-Butyl-benzofuran-3-yl)-hydroxy-methyl]-biphenyl-4-yloxy}-acetic acid]	540 nM	-24%	–
CCCCc1oc2ccccc2c1Cc1ncc(-c2ccc(OC)cc2)o1 [Example 24, 2-(2-Butyl-benzofuran-3-ymethyl)-5-(4-methoxy-phenyl)-oxazole]	–	–	inhibition at 2.5 µM ([1]; compound at 2.5 uM): 35%
CCCCc1oc2ccccc2c1C(=O)c1ccc2c(Br)c(OCc3nnn[nH]3)ccc2c1 [Example 12, [5-bromo-6-(1H-tetrazol-5-ylmethoxy)-naphthalen-2-yl]-(2-butyl-benzofuran-3-yl)methanone]	1130 nM	-70%	% Change Insulin from Vehicle (diabetic (ob/ob) mice): 12%; % Change Glucose from Vehicle (diabetic (ob/ob) mice): -24.8%
CCCCc1oc2ccccc2c1Cc1ccc2c(Br)c(O)ccc2c1 [Example 3, 1-Bromo-6-(2-butyl-benzofuran-3-ylmethyl)-naphthalen-2-ol]	330 nM	-37%	–
CCCCc1oc2ccccc2c1Cc1ccc2c(I)c(O)ccc2c1 [Example 7, 6-(2-Butyl-benzofuran-3-ylmethyl)-1-iodo-naphthalen-2-ol]	310 nM	-24%	–
CCCCc1oc2ccccc2c1C(Sc1nc2ccccc2s1)c1ccc2cc(O)ccc2c1 (stereo not shown) [Example 27]	1000 nM	–	–
